Test results taken from patent publication US11066414B2, “Cot modulators and methods of use thereof” (Gilead Sciences, Inc., priority 2015, dated 2021).
pEC50, pIC50: −log10 of the molar value. Read-outs that look alike come from different tables or passages of the source.

What was measured:
TNFα = assay: Cot Monocyte TNFα Cell Based Assay
Human Cot = Human Cot (Homo sapiens (Human), UniProt P41279); assay: High Throughput Cot Biochemical Assay
[1] = Homo sapiens, Monocyte, read-out: EC50 TNF, LPS-stimulated human monocytes, TNFα
[2] = IC50 HTRF, Cot HTRF (TR-FRET) biochemical assay
[3] = Homo sapiens, Monocyte, read-out: EC50 TNF, LPS-stimulated human monocytes, TNFα TR-FRET
[4] = IC50 HTRF, Cot HTRF (TR-FRET KinEASE) biochemical assay, 400 μM ATP
[5] = read-out: EC50 TNF, LPS-stimulated human monocytes, TNFα TR-FRET
[6] = read-out: IC50 HTRF, Cot HTRF (TR-FRET KinEASE) biochemical assay, 400 μM ATP

Chain of Human Cot (P41279 30-397): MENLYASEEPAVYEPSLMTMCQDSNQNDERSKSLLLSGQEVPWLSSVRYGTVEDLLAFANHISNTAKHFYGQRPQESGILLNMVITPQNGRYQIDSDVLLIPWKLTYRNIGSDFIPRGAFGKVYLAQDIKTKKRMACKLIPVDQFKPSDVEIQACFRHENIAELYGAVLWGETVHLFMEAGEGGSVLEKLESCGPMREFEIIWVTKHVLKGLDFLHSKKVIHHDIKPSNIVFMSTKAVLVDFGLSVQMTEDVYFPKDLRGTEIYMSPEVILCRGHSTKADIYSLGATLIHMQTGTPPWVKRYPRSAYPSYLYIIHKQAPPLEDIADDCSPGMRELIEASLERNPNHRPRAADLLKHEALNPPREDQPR

## N#Cc1cnc2c(Cl)cc(N[C@@H](c3cccnc3)c3cn(CCN4CCCCC4)nn3)cc2c1Nc1ccc(F)c(Cl)c1 [Example 334, (S)-8-chloro-4-((3-chloro-4-fluorophenyl)amino)-6-(((1-(2-(piperidin-1-yl)ethyl)-1H-1,2,3-triazol-4-yl)(pyridin-3-yl)methyl)-amino)quinoline-3-carbonitrile]
TNFα; [1]
  pEC50: 7.09
Human Cot; [2]
  pIC50: 8.40

## Cc1nc(F)ccc1[C@H](Nc1cc(C#N)c2ncc(C#N)c(NCC(C)(C)C(F)(F)F)c2c1)c1cn(C23CC(C2)C3)nn1 [Example 833, (S)-6-(((1-(bicyclo[1.1.1]pentan-1-yl)-1H-1,2,3-triazol-4-yl)(6-fluoro-2-methylpyridin-3-yl)methyl)amino)-4-((3,3,3-trifluoro-2,2-dimethylpropyl)amino)quinoline-3,8-dicarbonitrile]
TNFα; [3]
  pEC50: 7.66
Human Cot; [4]
  pIC50: 8.70

## N#Cc1cnc2c(Cl)cc(N[C@@H](c3cccnc3)c3c[nH]nn3)cc2c1Nc1ccc(Cl)c(Cl)c1F [Example 256, (S)-8-chloro-4-((3,4-dichloro-2-fluorophenyl)amino)-6-((pyridin-3-yl(1H-1,2,3-triazol-4-yl)methyl)-amino)quinoline-3-carbonitrile]
TNFα; [1]
  pEC50: 6.47
Human Cot; [2]
  pIC50: 7.80

## Cn1ccc2c([C@H](Nc3cc(C#N)c4ncc(C#N)c(NCC(C)(C)C)c4c3)c3cn(C4(C(F)F)CC4)nn3)cccc21 [Example 847, (S)-6-(((1-(1-(difluoromethyl)-cyclopropyl)-1H-1,2,3-triazol-4-yl)(1-methyl-1H-indol-4-yl)methyl)amino)-4-(neopentylamino)quinoline-3,8-dicarbonitrile]
TNFα; [3]
  pEC50: 6.53
Human Cot; [4]
  pIC50: 7.51

## Cc1nc(F)ccc1[C@H](Nc1cc(C#N)c2ncc(C#N)c(NCC(C)(C)C)c2c1)c1cn(C(C)(C)CF)nn1 [Example 625, (S)-6-(((1-{1-fluoro-2-methylpropan-2-yl)-1H-1,2,3-triazol-4-yl)(6-fluoro-2-methylpyridin-3-yl)methyl)amino)-4-(neopentylamino)quinoline-3,8-dicarbonitrile]
TNFα; [1]
  pEC50: 7.59
Human Cot; [2]
  pIC50: 8.70

## Cn1ncc2c([C@H](Nc3cc(C#N)c4ncc(C#N)c(NCC(C)(C)C)c4c3)c3cn(C4(C(F)(F)F)CC4)nn3)cccc21 [Example 557, (S)-6-(((1-methyl-1H-indazol-4-yl)(1-(1-(trifluoro-methyl)cyclopropyl)-1H-1,2,3-triazol-4-yl)methyl)amino)-4-(neopentylamino)-quinoline-3,8-dicarbonitrile]
TNFα; [1]
  pEC50: 6.93
Human Cot; [2]
  pIC50: 8.30

## [2H][C@](Nc1cc(Cl)c2ncc(C#N)c(N[C@H](CC)c3ccccc3)c2c1)(c1ccc(F)nc1)c1c[nH]nn1 [Example 134, 8-chloro-6-(((S)-(6-fluoropyridin-3-yl)(1H-1,2,3-triazol-4-yl)methyl-d)amino)-4-(((R)-1-phenylpropyl)amino)quinoline-3-carbonitrile]
TNFα; [1]
  pEC50: 6.71
Human Cot; [2]
  pIC50: 8.22

## N#Cc1cnc2c(Cl)cc(N[C@H](c3cn(C4COC4)nn3)c3cccnc3Cl)cc2c1Nc1ccc(F)c(Cl)c1 [Example 319, (S)-8-chloro-4-((3-chloro-4-fluorophenyl)amino)-6-(((2-chloropyridin-3-yl)(1-(oxetan-3-yl)-1H-1,2,3-triazol-4-yl)methyl)amino)-quinoline-3-carbonitrile]
TNFα; [1]
  pEC50: 6.78
Human Cot; [2]
  pIC50: 8.30

## COc1nccc2c([C@H](Nc3cc(C#N)c4ncc(C#N)c(NCC(C)(C)C(F)(F)F)c4c3)c3cn(C4(C(F)F)CC4)nn3)cccc12 [Example 821]
TNFα; [5]
  pEC50: 7.22
Human Cot; [6]
  pIC50: 8.52

## Cc1nc(F)ccc1[C@H](Nc1cc(C#N)c2ncc(C#N)c(N[C@@H]3CCOCC3(C)C)c2c1)c1cn(C2(C3CC3)CC2)nn1 [Example 675]
TNFα; read-out: EC50 TNF, LPS-stimulated human monocytes, TNFα
  pEC50: 8.15
Human Cot; read-out: IC50 HTRF, Cot HTRF (TR-FRET) biochemical assay
  pIC50: 9.00

## Cc1nc(F)ccc1[C@H](Nc1cc(Cl)c2ncc(C#N)c(NCC(C)(C)C)c2c1)c1cn(C23CC(C2)C3)nn1 [Example 646, (S)-6-(((1-(bicyclo[1.1.1]pentan-1-yl)-1H-1,2,3-triazol-4-yl)(6-fluoro-2-methylpyridin-3-yl)methyl)amino)-8-chloro-4-(neopentylamino)quinoline-3-carbonitrile]
TNFα; [1]
  pEC50: 7.40
Human Cot; [2]
  pIC50: 8.52

## Cc1ncsc1[C@H](Nc1cc(Cl)c2ncc(C#N)c(N[C@H](C)c3ccccc3)c2c1)c1cn(C(C)C)nn1 [Example 239, 8-chloro-6-(((R)-(1-isopropyl-1H-1,2,3-triazol-4-yl)(4-methylthiazol-5-yl)methyl)amino)-4-(((R)-1-phenylethyl)amino)quinoline-3-carbonitrile]
TNFα; [1]
  pEC50: 6.03
Human Cot; [2]
  pIC50: 7.80

## CC(C)(CNc1c(C#N)cnc2c(C#N)cc(N[C@H](c3cn(C45CC(C4)C5)nn3)c3cccc4ncccc34)cc12)C(F)(F)F [Example 897, (S)-6-(((1-(bicyclo[1.1.1]pentan-1-yl)-1H-1,2,3-triazol-4-yl)(quinolin-5-yl)methyl)amino)-4-((3,3,3-trifluoro-2,2-dimethylpropyl)amino)quinoline-3,8-dicarbonitrile]
TNFα; [3]
  pEC50: 7.74
Human Cot; [4]
  pIC50: 8.70

## [2H][C@](Nc1cc(Cl)c2ncc(C#N)c(Nc3cnc(F)c(Cl)c3)c2c1)(c1ccc(F)nc1)c1cn(C2CC2)nn1 [Example 139, (S)-8-chloro-4-((5-chloro-6-fluoropyridin-3-yl)amino)-6-(((1-cyclopropyl-1H-1,2,3-triazol-4-yl)(6-fluoropyridin-3-yl)methyl-d)amino)quinoline-3-carbonitrile]
TNFα; [1]
  pEC50: 7.04
Human Cot; [2]
  pIC50: 8.70

## N#Cc1cnc2c(Cl)cc(N[C@H](c3c[nH]nn3)c3cccc4c3CNC4)cc2c1Nc1ccc(F)c(Cl)c1 [Example 56, (S)-8-chloro-4-((3-chloro-4-fluorophenyl)amino)-6-((isoindolin-4-yl(1H-1,2,3-triazol-4-yl)methyl)amino)quinoline-3-carbonitrile]
TNFα; [1]
  pEC50: 5.60
Human Cot; [2]
  pIC50: 8.22

## COc1nccc2c([C@H](Nc3cc(C#N)c4ncc(C#N)c(NCC(C)(C)C)c4c3)c3cn(C4(C(F)(F)F)CC4)nn3)cccc12 [Example 812, (S)-6-(((1-methoxylsoquinolin-5-yl)(1-(1-(trifluoromethyl)cyclopropyl)-1H-1,2,3-triazol-4-yl)methyl)amino)-4-(neopentylamino)quinoline-3,8-dicarbonitrile]
TNFα; [5]
  pEC50: 7.17
Human Cot; [6]
  pIC50: 8.30

## Cc1nc(F)ccc1[C@H](Nc1cc(C#N)c2ncc(C#N)c(NCC(C)(C)C)c2c1)c1cn(C2(C(=O)N(C)C)CC2)nn1 [Example 642, (S)-1-(4-(((3,8-dicyano-4-(neopentylamino)quinolin-6-yl)amino)(6-fluoro-2-methylpyridin-3-yl)methyl)-1H-1,2,3-triazol-1-yl)-N,N-dimethylcyclopropane-1-carboxamide]
TNFα; [1]
  pEC50: 6.74
Human Cot; [2]
  pIC50: 8.30

## Cc1ccc([C@H](Nc2cc(C#N)c3ncc(C#N)c(NCC(C)(C)C)c3c2)c2cn(C3(C(F)(F)F)CC3)nn2)c(F)n1 [Example 690, (S)-6-(((2-fluoro-6-methylpyridin-3-yl)(1-(1-(trifluoromethyl)cyclopropyl)-1H-1,2,3-triazol-4-yl)methyl)amino)-4-(neopentylamino)quinoline-3,8-dicarbonitrile]
TNFα; [1]
  pEC50: 6.60
Human Cot; [2]
  pIC50: 7.68

## C[C@@H](n1cc([C@@H](Nc2cc(Cl)c3ncc(C#N)c(Nc4cnc(F)c(F)c4)c3c2)c2cccnc2)nn1)C(F)(F)F [Example 205, 8-chloro-4-((5,6-difluoropyridin-3-yl)amino)-6-(((S)-pyridin-3-yl(1-((R)-1,1,1-trifluoropropan-2-yl)-1H-1,2,3-triazol-4-yl)methyl)amino)quinoline-3-carbonitrile]
TNFα; [1]
  pEC50: 5.69
Human Cot; [2]
  pIC50: 7.14

## CC(C)(C)CNc1c(C#N)cnc2c(Cl)cc(N[C@H](c3cn(C4(C(F)F)CC4)nn3)c3ccc(F)c4cnccc34)cc12 [Example 652, (S)-8-chloro-6-(((1-(1-(difluoromethyl)cyclopropyl)-1H-1,2,3-triazol-4-yl)(8-fluoroisoquinolin-5-yl)methyl)amino)-4-(neopentylamino)quinoline-3-carbonitrile]
TNFα; [1]
  pEC50: 7.40
Human Cot; [2]
  pIC50: 8.40

## Cc1scnc1[C@H](Nc1cc(Cl)c2ncc(C#N)c(NCC(C)(C)C)c2c1)c1cn(C2(C(F)F)CC2)nn1 [Example 620, (S)-8-chloro-6-(((1-(1-(difluoromethyl)cyclo-propyl)-1H-1,2,3-triazol-4-yl)(5-methylthiazol-4-yl)methyl)amino)-4-(neopentylamino)quinoline-3-carbonitrile]
TNFα; [1]
  pEC50: 6.00
Human Cot; [2]
  pIC50: 6.99

## [2H][C@@](Nc1cc(Cl)c2ncc(C#N)c(N[C@H](CC)c3ccccc3)c2c1)(c1cn(C2CC2)nn1)c1cccnc1F [Example 105, 8-chloro-6-(((S)-(1-cyclopropyl-1H-1,2,3-triazol-4-yl)(2-fluoropyridin-3-yl)methyl-d)amino)-4-(((R)-1-phenylpropyl)amino)quinoline-3-carbonitrile]
TNFα; [1]
  pEC50: 6.84
Human Cot; [2]
  pIC50: 8.52

## CC[C@@H](Nc1c(C#N)cnc2c(Cl)cc(N[C@@H](c3cccnc3)c3cn(C4CC4)nn3)cc12)c1ccccc1 [Example 191, 8-chloro-6-(((S)-(1-cyclopropyl-1H-1,2,3-triazol-4-yl)(pyridin-3-yl)methyl)amino)-4-(((R)-1-phenylpropyl)amino)quinoline-3-carbonitrile]
TNFα; [1]
  pEC50: 6.98
Human Cot; [2]
  pIC50: 8.70

## Cc1nc(F)ccc1[C@H](Nc1cc(Cl)c2ncc(C#N)c(NCC(C)(C)CCl)c2c1)c1cn(C2(C(F)(F)F)CC2)nn1 [Example 635, (S)-8-chloro-4-((3-chloro-2,2-dimethylpropyl)amino)-6-(((6-fluoro-2-methylpyridin-3-yl)(1-(1-(trifluoromethyl)cyclopropyl)-1H-1,2,3-triazol-4-yl)methyl)amino)quinoline-3-carbonitrile]
TNFα; [1]
  pEC50: 7.22
Human Cot; [2]
  pIC50: 8.52
